Measured values: patent US20140235588A1, “SUBSTITUTED 1H-PYRAZOL-1,2,4-OXADIAZOLE DERIVATIVES AS SPHINGOSINE RECEPTOR MODULATORS” (Allergan, Inc., priority 2013, published 2014)

Biological target: T1, human S1P1 receptor (Homo sapiens, UniProt P21453)
T1 construct: expressed in transfected cells; membranes used
Assay: GTP γ35S binding assay for S1P1 activity
Assay type: biochemical
Settings: membranes of cells stably expressing the S1P1 receptor, agonist potency
Experimental: Compounds of the invention were tested for S1P1 activity using the GTP γ^35S binding assay. These compounds may be assessed for their ability to activate or block activation of the human S1P1 receptor in cells stably expressing the S1P1 receptor.
GTP γ^35S binding was measured in the medium containing (mM) HEPES 25, pH 7.4, MgCl2 10, NaCl 100, dithitothreitol 0.5, digitonin 0.003%, 0.2 nM GTP γ^35S, and 5 μg membrane protein in a volume of 150 μl. Test compounds were included in the concentration range from 0.08 to 5,000 nM unless indicated otherwise. Membranes were incubated with 100 μM 5′-adenylylimmidodiphosphate for 30 min, and subsequently with 10 μM GDP for 10 min on ice.
Drug solutions and membrane were mixed, and then reactions were initiated by adding GTP γ^35S and continued for 30 min at 25° C. Reaction mixtures were filtered over Whatman GF/B filters under vacuum, and washed three times with 3 mL of ice-cold buffer (HEPES 25, pH7.4, MgCl2 10 and NaCl 100). Filters were dried and mixed with scintillant, and counted for ^35S activity using a β-counter. Agonist-induced GTP γ^35S binding was obtained by subtracting that in the absence of agonist. Binding data were analyzed using a non-linear regression method. In case of antagonist assay, the reaction mixture contained 10 nM S1P in the presence of test antagonist at concentrations ranging from 0.08 to 5000 nM.

T1 sequence (P21453 whole entry): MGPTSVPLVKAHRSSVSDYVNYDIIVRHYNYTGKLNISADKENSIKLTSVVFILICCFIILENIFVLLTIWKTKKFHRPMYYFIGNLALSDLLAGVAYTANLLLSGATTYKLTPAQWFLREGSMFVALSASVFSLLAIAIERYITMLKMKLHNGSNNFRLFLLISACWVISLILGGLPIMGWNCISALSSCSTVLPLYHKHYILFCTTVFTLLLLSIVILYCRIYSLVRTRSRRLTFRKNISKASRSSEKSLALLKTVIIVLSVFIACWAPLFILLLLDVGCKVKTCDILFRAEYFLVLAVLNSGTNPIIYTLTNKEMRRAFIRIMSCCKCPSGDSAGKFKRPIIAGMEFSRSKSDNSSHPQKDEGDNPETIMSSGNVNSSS

SMILES | EC50
Cn1nc(-c2nc(-c3ccc(CNCCCP(=O)(O)O)cc3)no2)cc1-c1ccccc1 [Compound 1, [3-({4-[5-(1-Methyl-5-phenyl-1H-pyrazol-3-yl)-1,2,4-oxadiazol-3-yl]benzyl}amino)propyl]phosphonic acid] | 32 nM
Cn1nc(-c2nc(-c3ccc(CNCCC(=O)O)cc3)no2)cc1-c1ccccc1 [Compound 2, 3-({4-[5-(1-methyl-5-phenyl-1H-pyrazol-3-yl)-1,2,4-oxadiazol-3-yl]benzyl}amino)propanoic acid] | 658 nM
